This note sets out measurements from patent US6767561B2, “DNA polymerase inhibitors, mikanolide and dihydromikanolide” (Societe de Conseils de Recherches et d'Applications …, priority 1999, dated 2004).

The test system of test [1] is HT29 cells. In words: Incorporation of tritiated thymidine into the DNA of HT29 cells in exponential growth phase (in vitro). The test is classed as cell-based, human. As to conditions: 1 hour treatment. As for the experimental part: (§1) The cell lines DU145 (human prostate cancer cells), HT29 (cancer of the colon) and Mia-PaCa2 (human pancreatic cancer cells) were acquired from the American Tissue Culture Collection (Rockville, Md., USA).
Incorporation of Thymidine Labelled With Tritium into DNA Cells in Exponential Growth Phase (in vitro)
HT29 cells are seeded in 96-well plates (culturPlate-96, Packard; 4000 cells per well) with the medium (DMEM, Gibco BRL complemented with 10% foetal calf serum, Gibco BRL). On day 3, the medium is removed and replaced by medium containing the tritiated thymidine (5′-thymidine TRK.328, 1 mCi, 0.6 μCi/wells, Amersham) with or without the products (range of 100 to 0.19 μg/ml per ½ dilutions). The treatments are carried out for 1 hour. The medium is then removed and the cells are washed twice with 200 μl of PBS (Gibco BRL). The lysis solution (SDS 1.25%; EDTA 5 mM) is added and left for 10 minutes at ambient temperature, then 75 μl of scintillating liquid (microscint® 40, Packard) is added. Reading is carried out using Topcount® (Packard). The results are expressed as a percentage of the inhibition of incorporation of the labelled nucleotide in the sample with respect to the control (100−(DPM of the sample/DPM control)*100).

Test [2] has as its system DU145 human tumor cells. Nature of the test: Cell proliferation test (WST1), DU145. It counts as cell-based. The settings on record: DU-145, 96 hours treatment, read-out: Inhibitory concentration IC50. As to the method:
as §1
(§2) The cells placed in 80 μl of Dulbecco's modified Eagle medium (Gibco-Brl, Cergy-Pontoise, France) completed with 10% foetal calf serum inactivated by heating (Gibco-Brl, Cergy-Pontoise, France), 50000 units/l of penicillin and 50 mg/l streptomycin (Gibco-Brl, Cergy-Pontoise, France), and 2 mM of glutamine (Gibco-Brl, Cergy-Pontoise, France) were seeded on a 96-well plate on day 0. The cells were treated on day 1 for 96 hours with increasing concentrations of each of the compounds to be tested at 50 μg/ml. At the end of this period, quantification of cell proliferation is evaluated by a colorimetric test based on the cleavage of the tetrazolium salt WST1 by mitochondrial dehydrogenases in viable cells leading to the formation of formazan (Boehringer Mannheim, Meylan, France). These tests are carried out in duplicate with 8 determinations per concentration tested. For each compound to be tested, the values included in the linear part of the sigmoid were retained for linear regression analysis and used to estimate the inhibitory concentration IC50. The products are solubilized in dimethylsulphoxide (DMSO) at 10^−2 M and finally used in culture with 0.5% DMSO.

For test [3], the system named is Mia-Paca2 human tumor cells. In words: Cell proliferation test (WST1), Mia-PaCa2. It counts as cell-based. As to conditions: Mia-Paca2, 96 hours treatment, read-out: Inhibitory concentration IC50. As for the experimental part:
as §1, §2

The test system of test [4] is Klenow DNA polymerase enzyme without exonuclease. In words: Incorporation of cytosine labelled with 32P into a DNA in the presence of DNA polymerase in an acellular system. It counts as biochemical. As to conditions: 100 μg/ml, [32P]dCTP incorporation vs control. As for the experimental part: Incorporation of Cytosine Labelled With ^32P into a DNA in the Presence of DNA Polymerase in an Acellular System
Labelling of the DNA is carried out on a DNA fragment which incorporates nucleotides by way of the activity of the DNA polymerase enzyme. From these nucleotides, the dCTP is labelled by radioactive phosphorus (^32P).
Plasmidic DNA (pc DNA 3, invitrogen, Netherlands) is diluted to a concentration of 2 ng in 45 μl of TE solution (10 MM Tris-HCl; pH 8.0; 1 mM EDTA) then denatured by heating at 100° C. for 10 minutes before being replaced directly in ice. The denatured DNA is placed in the tube which contains the buffer solution of dATP, dGTP, dTTP, the Klenow DNA polymerase enzyme without exonuclease and the random primers (Rediprime II random prime labelling system, RPN 1633, RPN 1634, Amersham pharmacia biotech). 2 μl of Redivue [^32P]dCTP ([…] 5′(α-^32P), specific activity 250 μCi, Amersham), is added to start the reaction. The reaction is carried out in the presence or absence of the compound to be tested for 10 minutes at 37° C. or 1 hour at ambient temperature. […] 10 μl is counted into 5 ml of scintillor (Instagel® plus and Packard scintillation counter). The results are expressed as a percentage of the inhibition of incorporation of the labelled nucleotide in the sample with respect to the control (100−(DPM of the sample/DPM control)*100).

`C=C1C(=O)O[C@H]2C[C@]3(C)O[C@H]3[C@@H]3O[C@@H]3C3=C[C@@H](OC3=O)[C@H]12` [Mikanolide, mikanolide]: the figures for the “Remaining thymidine incorporation (dpm sample/dpm control)” value in test [1] (25 μg/ml), in test [1] (50 μg/ml) and in test [1] (100 μg/ml) were 1.04, 0.61 and 0.53, respectively. The IC50 in test [2] was determined as 15 µM; in test [3], 3 µM. In test [4], the “Inhibition of incorporation (%)” value is 79.6 (n = 3; standard deviation σ = 11.0) %.
As to `C[C@H]1C(=O)O[C@H]2C[C@]3(C)O[C@H]3[C@@H]3O[C@@H]3C3=C[C@@H](OC3=O)[C@@H]21` [Dihydromikanolide, dihydromikanolide], the “Remaining thymidine incorporation (dpm sample/dpm control)” value in test [1] (25 μg/ml) is 0.58; in test [1] (50 μg/ml), 0.29; in test [1] (100 μg/ml), 0.19. The “Inhibition of incorporation (%)” value in test [4] was 73 (n = 5; standard deviation σ = 7) %.
